Measured values as given in patent US20220202783A1, “Use Of ADAM9 Inhibitor As Immunomodulator” (China Medical University, priority 2019, published 2022).

Assays:
Type in all cases: cell-based
[1] = system: lung cancer cells (H1299); assay: cytotoxicity assay in H1299 cells; parameters: key to effect of inhibiting tumor cell growth: “+” represents that the compound has the effect of inhibiting tumor cell growth; settings: for effect of inhibiting tumor cell growth: H1299; for IC50: Homo sapiens, NCI-H1299
Method: (§1) Please refer to FIG. 1A, FIG. 1B and Table 2, which show the analysis results of the compound of Formula (I) inhibiting ADAM9 activity. In FIG. 1A, Bm7 lung cancer cells were treated with the derivatives of the compound 6X-0310, and then cultured under anchorage-free culture condition. The expressions of ADAM9 and CDCP1 in Bm7 lung cancer cells were detected by Western blot, in which EF1α is an internal control, and mock represents Bm7 lung cancer cells without treatment. […] In the experiment, the compounds of Formula (I) of Example 1 to Example 32 were further performed cytotoxicity assay to measure the IC50 value of the compounds of Formula (I) of the present disclosure in lung cancer cell lines.

lung cancer cells (A549) = assay: cytotoxicity assay in A549 cells; parameters: key to effect of inhibiting tumor cell growth: “+” represents that the compound has the effect of inhibiting tumor cell growth; settings: for IC50: Homo sapiens
Method: as §1

Bm7 lung cancer cells = assay: cytotoxicity assay, FIG. 1B and Table 2 summary
Method: as §1

[2] = system: lung cancer cells (Bm7brmx2); assay: cytotoxicity assay in Bm7brmx2 cells; parameters: key to effect of inhibiting tumor cell growth: “+” represents that the compound has the effect of inhibiting tumor cell growth
Method: as §1

[3] = system: lung cancer cells (Bm7brmx2-1st); assay: cytotoxicity assay in Bm7brmx2-1st cells; parameters: key to effect of inhibiting tumor cell growth: “+” represents that the compound has the effect of inhibiting tumor cell growth
Method: as §1

[4] = system: CDCP1 in Bm7 lung cancer cells; assay: Western blot of ADAM9 and CDCP1 expression in Bm7 cells; settings: anchorage-free culture
Method: as §1

[5] = system: lung cancer cells (Bm7brmx2-2nd); assay: cytotoxicity assay in Bm7brmx2-2nd cells; parameters: key to effect of inhibiting tumor cell growth: “+” represents that the compound has the effect of inhibiting tumor cell growth
Method: as §1

HNOF = assay: cytotoxicity assay in HNOF cells; parameters: key to effect of inhibiting tumor cell growth: “+” represents that the compound has the effect of inhibiting tumor cell growth; settings: HNOF
[6] = cytotoxicity assay in HNOF cells; parameters: key to effect of inhibiting tumor cell growth: “+” represents that the compound has the effect of inhibiting tumor cell growth; settings: human, HNOF cells
lung cancer cells (TC1) = assay: cytotoxicity assay in TC1 cells; parameters: key to effect of inhibiting tumor cell growth: “+” represents that the compound has the effect of inhibiting tumor cell growth; settings: for IC50: TC-1
Method: as §1

[7] = system: kidney cancer cells (293); assay: cytotoxicity assay in 293 cells; parameters: key to effect of inhibiting tumor cell growth: “+” represents that the compound has the effect of inhibiting tumor cell growth; settings: Homo sapiens, HEK293
[8] = cytotoxicity assay in 293 cells; parameters: key to effect of inhibiting tumor cell growth: “+” represents that the compound has the effect of inhibiting tumor cell growth; settings: 293

SMILES | effect of inhibiting tumor cell growth [1] | IC50 [1] | effect of inhibiting tumor cell growth (lung cancer cells (A549)) | IC50 (lung cancer cells (A549)) | tumor cell cytotoxicity compared with the core structure compound 6X-0310 (Bm7 lung cancer cells) | IC50 [2] | effect of inhibiting tumor cell growth [2] | IC50 [3] | effect of inhibiting tumor cell growth [3] | expression of CDCP1 [4] | IC50 [5] | effect of inhibiting tumor cell growth [5] | effect of inhibiting tumor cell growth (HNOF) | IC50 [6] | effect of inhibiting tumor cell growth (lung cancer cells (TC1)) | IC50 (lung cancer cells (TC1)) | IC50 [7] | effect of inhibiting tumor cell growth [8]
COc1ccc(OC)c(/C=N/Nc2nc(CCN3C(=O)c4ccccc4C3=O)cs2)c1 [2X-0295] | + | 72 µM | + | 1020 µM | stronger tumor cell cytotoxicity | 75.2 µM | + | 53.2 µM | + | reduce the expression of CDCP1 | 267 µM | + | + | 78.4 µM | + | 79 µM | 77.4 µM | +
O=C1c2ccccc2C(=O)N1CCc1csc(COc2ccccc2Cl)n1 [12W-0264] | + | 138 µM | + | 162 µM | stronger tumor cell cytotoxicity | 99.2 µM | + | 40.9 µM | + | reduce the expression of CDCP1 | 151 µM | + | + | > 125 µM | + | 88.9 µM | 59.7 µM | +
